Where “and” joins values, the source holds several entries; their conditions need not be identical. Equal entries are not always repeated.
Tested on: NCI-H358 (K-Ras G12C)
Assay: CellTiter-Glo cell viability assay, NCI-H358
Type: cell-based, human
Settings: Table 5; read-out: H358 Cell Viability assay data (K-Ras G12C, IC50)
Method: Note - The following protocol describes a procedure for monitoring cell viability of K-Ras mutant cancer cell lines in response to a compound of the invention. Other RAS isoforms may be employed, though the number of cells to be seeded will vary based on cell line used.
Test compounds (132.5 nL) were directly dispensed into the assay plates containing cells. […] On day 5, assay plates and their contents were equilibrated to room temperature for approximately 30 minutes. […] Luminescence was measured using the PerkinElmer Enspire. Data were normalized by the following: (Sample signal/Avg. DMSO)*100. The data were fit using a four-parameter logistic fit.

Row | SMILES | IC50
1 | CCn1c(-c2ccccc2CN(C)C)c2c3cc(ccc31)-c1cc(O)cc(c1)C[C@H](NC(=O)[C@H](C(C)C)N(C)C(=O)c1ccc(NC(=O)/C=C/CN(C)C)cn1)C(=O)N1CCC[C@H](N1)C(=O)OCC(C)(C)C2 [Compound A46] | > 1000 nM
2 | CCn1c(-c2ccccc2CN(C)C)c2c3cc(ccc31)-c1cc(O)cc(c1)C[C@H](NC(=O)[C@H](C(C)C)N(C)C(=O)[C@H]1CCN(C(=O)/C=C/CN(C)C)C1)C(=O)N1CCC[C@H](N1)C(=O)OCC(C)(C)C2 [Compound A47] | 10 to 100 nM
3 | CCn1c(-c2ccccc2CN(C)C)c2c3cc(ccc31)-c1cc(O)cc(c1)C[C@H](NC(=O)[C@H](C(C)C)N(C)C(=O)c1ccc(NC(=O)/C=C/CN(C)C)cc1)C(=O)N1CCC[C@H](N1)C(=O)OCC(C)(C)C2 [Compound A49] | > 1000 nM
4 | C=CC(=O)N1CC[C@H](C(=O)N(C)[C@H](C(=O)N[C@H]2Cc3cc(O)cc(c3)-c3ccc4c(c3)c(c(-c3cccnc3COC)n4CC)CC(C)(C)COC(=O)[C@@H]3CCCN(N3)C2=O)C2CCCC2)C1 [Compound A55] | < 10 nM
5 | C=CC(=O)N1C[C@H](C)[C@H](C(=O)N(C)[C@H](C(=O)N[C@H]2Cc3cc(O)cc(c3)-c3ccc4c(c3)c(c(-c3cccnc3COC)n4CC)CC(C)(C)COC(=O)[C@@H]3CCCN(N3)C2=O)C(C)C)C1 [Compound A56] | < 10 nM
6 | C=CC(=O)N1C[C@H](C)[C@H](C(=O)N(C)[C@H](C(=O)N[C@H]2Cc3cc(O)cc(c3)-c3ccc4c(c3)c(c(-c3cccnc3COC)n4CC)CC(C)(C)COC(=O)[C@@H]3CCCN(N3)C2=O)C2CCCC2)C1 [Compound A57] | < 10 nM
7 | C=CC(=O)N1CC[C@H](C(=O)N(C)[C@H](C(=O)N[C@H]2Cc3cc(O)cc(c3)-c3ccc4c(c3)c(c(C3=C(COC)COCC3)n4CC)CC(C)(C)COC(=O)[C@@H]3CCCN(N3)C2=O)C(C)C)C1 [Compound A58] | 10 to 100 nM
8 | C=CC(=O)N1CC[C@H](C(=O)N(C)[C@H](C(=O)N[C@H]2Cc3cc(OC(C)=O)cc(c3)-c3ccc4c(c3)c(c(-c3ccccc3CN(C)C)n4CC)CC(C)(C)COC(=O)[C@@H]3CCCN(N3)C2=O)C(C)C)C1 [Compound A59] | 100 to 1000 nM
9 | C=CC(=O)N1CC[C@H](C(=O)N(C)[C@H](C(=O)N[C@H]2Cc3cc(O)cc(c3)-c3ccc4c(c3)c(c(-c3cccnc3N3CC(OC)C3)n4CC)CC(C)(C)COC(=O)[C@@H]3CCCN(N3)C2=O)C(C)C)C1 [Compound A60] | 10 to 100 nM
10 | C=CC(=O)N1CC[C@H](C(=O)N(C)[C@H](C(=O)N[C@H]2Cc3cc(O)cc(c3)-c3ccc4c(c3)c(c(-c3cncnc3)n4CC)CC(C)(C)COC(=O)[C@@H]3CCCN(N3)C2=O)C(C)C)C1 [Compound A61] | 10 to 100 nM
11 | CCn1c(-c2cccnc2COC)c2c3cc(ccc31)-c1cc(O)cc(c1)C[C@H](NC(=O)[C@H](C(C)C)N(C)C(=O)c1ccc(NC(=O)/C=C/CN(C)C)cn1)C(=O)N1CCC[C@H](N1)C(=O)OCC(C)(C)C2 [Compound A67, (2E)-4-(dimethylamino)-N-(6-{[(1S)-1-{[(8S,14S)-22-ethyl-4-hydroxy-21-[2-(methoxymethyl)pyridin-3-yl]-18,18-dimethyl-9,15-dioxo-16-oxa-10,22,28-triazapentacyclo[18.5.2.1^2,^6.1^10,^14.0^23,^27]nonacosa-1(26),2,4,6(29),20,23(27),24-heptaen-8-yl]carbamoyl}-2-methylpropyl](methyl)carbamoyl}pyridin-3-yl)but-2-enamide] | 100 to 1000 nM
12 | C=CC(=O)N1CC[C@@]2(CCN([C@H](C(=O)N[C@H]3Cc4cc(O)cc(c4)-c4ccc5c(c4)c(c(-c4ccccc4CCOC)n5CC)CC(C)(C)COC(=O)[C@@H]4CCCN(N4)C3=O)C(C)C)C2=O)C1 [Compound A68] | 100 to 1000 nM
13 | C=CS(=O)(=O)N1CC[C@H](C(=O)N(C)[C@H](C(=O)N[C@H]2Cc3cc(O)cc(c3)-c3ccc4c(c3)c(c(-c3cccnc3COC)n4CC)CC(C)(C)COC(=O)[C@@H]3CCCN(N3)C2=O)C(C)C)C1 [Compound A69] | 10 to 100 nM
14 | CCn1c(-c2cccnc2COC)c2c3cc(ccc31)-c1cc(O)cc(c1)C[C@H](NC(=O)[C@H](C(C)C)N(C)C(=O)C1CN(C(=O)/C=C/CN(C)C)C1)C(=O)N1CCC[C@H](N1)C(=O)OCC(C)(C)C2 [Compound A71, (2S)-2-(1-{1-[(2E)-4-(dimethylamino)but-2-enoyl]azetidin-3-yl}-N-methylformamido)-N-[(8S,14S)-22-ethyl-4-hydroxy-21-[2-(methoxymethyl)pyridin-3-yl]-18,18-dimethyl-9,15-dioxo-16-oxa-10,22,28-triazapentacyclo[18.5.2.1^2,6.1^10,^14.0^23,^27]nonacosa-1(26),2,4,6(29),20,23(27),24-heptaen-8-yl]-3-methylbutanamide] | 100 to 1000 nM
15 | CCn1c(-c2cccnc2COC)c2c3cc(ccc31)-c1cc(O)cc(c1)C[C@H](NC(=O)[C@H](C(C)C)N(C)C(=O)[C@H]1CCN(C(=O)/C=C/CN3CCN(C)CC3)C1)C(=O)N1CCC[C@H](N1)C(=O)OCC(C)(C)C2 [Compound A72] | > 1000 nM
16 | C=CC(=O)N1CC[C@H](C(=O)N(C)[C@H](C(=O)N[C@H]2Cc3cc(O)cc(c3)-c3ccc4c(c3)c(c(-c3cnccc3[C@H](C)OC)n4CC)CC(C)(C)COC(=O)[C@@H]3CCCN(N3)C2=O)C(C)C)C1 [Compound A76] | < 10 nM

Results, then the compound that gave them:

Row | IC50 | SMILES
17 | 100 to 1000 nM | C=CC(=O)N1CC[C@H](C(=O)N(C)[C@H](C(=O)N[C@H]2Cc3cc(O)cc(c3)-c3ccc4c(c3)c(c(-c3ccc5c(c3)OCCN5C)n4CC)CC(C)(C)COC(=O)[C@@H]3CCCN(N3)C2=O)C(C)C)C1 [Compound A50]
18 | 10 to 100 nM | C=CC(=O)N1CC[C@H](C(=O)N(C)[C@H](C(=O)N[C@H]2Cc3cc(O)cc(c3)-c3ccc4c(c3)c(c(-c3ccc(CN(C)C)cc3COC)n4CC)CC(C)(C)COC(=O)[C@@H]3CCCN(N3)C2=O)C(C)C)C1 [Compound A51]
19 | 10 to 100 nM | C=CC(=O)N1C[C@H](C)[C@H](C(=O)N(C)[C@H](C(=O)N[C@H]2Cc3cc(O)cc(c3)-c3ccc4c(c3)c(c(-c3ccccc3CN(C)C)n4CC)CC(C)(C)COC(=O)[C@@H]3CCCN(N3)C2=O)C(C)C)C1 [Compound A52]
20 | 100 to 1000 nM | C=CC(=O)N1CC[C@H](C(=O)N(C)[C@H](C(=O)N[C@H]2Cc3cc(O)cc(c3)-c3cc(F)c4c(c3)c(c(-c3ccccc3CCOC)n4CC)CC(C)(C)COC(=O)[C@@H]3CCCN(N3)C2=O)C(C)C)C1 [Compound A53]
21 | 10 to 100 nM | CCn1c(-c2cccnc2COC)c2c3cc(ccc31)-c1cc(O)cc(c1)C[C@H](NC(=O)[C@H](C(C)C)N(C)C(=O)[C@H]1CCN(C(=O)/C=C/CN(C)C)C1)C(=O)N1CCC[C@H](N1)C(=O)OCC(C)(C)C2 [Compound A54, (2S)-2-{1-[(3S)-1-[(2E)-4-(dimethylamino)but-2-enoyl]pyrrolidin-3-yl]-N-methylformamido}-N-[(8S,14S)-22-ethyl-4-hydroxy-21-[2-(methoxymethyl)pyridin-3-yl]-18,18-dimethyl-9,15-dioxo-16-oxa-10,22,28-triazapentacyclo[18.5.2.1^2,^6.1^10,^14.0^23,^27]nonacosa-1(26),2,4,6(29),20,23(27),24-heptaen-8-yl]-3-methylbutanamide]
22 | 10 to 100 nM | C=CC(=O)N1CC[C@H](C(=O)N(C)[C@H](C(=O)N[C@H]2Cc3cc(O)cc(c3)-c3ccc4c(c3)c(c(-c3cncc(C#N)c3)n4CC)CC(C)(C)COC(=O)[C@@H]3CCCN(N3)C2=O)C(C)C)C1 [Compound A62]
23 | 10 to 100 nM | C=CC(=O)N1CC[C@H](C(=O)N(C)[C@H](C(=O)N[C@H]2Cc3cc(O)cc(c3)-c3ccc4c(c3)c(c(C3=C(COC)CCCC3)n4CC)CC(C)(C)COC(=O)[C@@H]3CCCN(N3)C2=O)C(C)C)C1 [Compound A64]
24 | 100 to 1000 nM | C=CC(=O)N1CC[C@H](C(=O)N(C)[C@H](C(=O)N[C@H]2Cc3cc(O)cc(c3)-c3ccc4c(c3)c(c([C@@H]3CC=CN=C3COC)n4CC)CC(C)(C)COC(=O)[C@@H]3CCCN(N3)C2=O)C(C)C)C1 [Compound A65]
25 | 10 to 100 nM | C=CC(=O)N1CC[C@H](C(=O)N(C)[C@H](C(=O)N[C@H]2Cc3cc(O)cc(c3)-c3ccc4c(c3)c(c(-c3cccnc3COC)n4C)CC(C)(C)COC(=O)[C@@H]3CCCN(N3)C2=O)C(C)C)C1 [Compound A66]
26 | 10 to 100 nM | C=CC(=O)N1CC(C(=O)N(C)[C@H](C(=O)N[C@H]2Cc3cc(O)cc(c3)-c3ccc4c(c3)c(c(-c3cccnc3COC)n4CC)CC(C)(C)COC(=O)[C@@H]3CCCN(N3)C2=O)C(C)C)C1 [Compound A70]
27 | 10 to 100 nM | C=CC(=O)N1CC[C@H](C(=O)N(C)[C@H](C(=O)N[C@H]2Cc3cc(O)cc(c3)-c3ccc4c(c3)c(c(-c3cncc(CN(C)C)c3)n4CC)CC(C)(C)COC(=O)[C@@H]3CCCN(N3)C2=O)C(C)C)C1 [Compound A73]
28 | 10 to 100 nM | C=CC(=O)N1CC[C@H](C(=O)N(C)[C@H](C(=O)N[C@H]2Cc3cc(O)cc(c3)-c3ccc4c(c3)c(c(-c3cccnc3)n4C(C)(C)C#N)CC(C)(C)COC(=O)[C@@H]3CCCN(N3)C2=O)C(C)C)C1 [Compound A74]
29 | < 10 nM and 10 to 100 nM | C=CC(=O)N1CC[C@H](C(=O)N(C)[C@H](C(=O)N[C@H]2Cc3cc(O)cc(c3)-c3ccc4c(c3)c(c(-c3cccnc3[C@H](C)OC)n4CC)CC(C)(C)COC(=O)[C@@H]3CCCN(N3)C2=O)C(C)C)C1 [Compound A75, (2S)-N-[(8S,14S,20M)-22-ethyl-4-hydroxy-21-{2-[(1S)-1-methoxyethyl]pyridin-3-yl}-18,18-dimethyl-9,15-dioxo-16-oxa-10,22,28-triazapentacyclo[18.5.2.1^2,^6.1^10,^14.0^23,^27]nonacosa-1(26),2,4,6(29),20,23(27),24-heptaen-8-yl]-3-methyl-2-{N-methyl-1-[(3S)-1-(prop-2-enoyl)pyrrolidin-3-yl]formamido}butanamide]
30 | 10 to 100 nM | C=CC(=O)N1CC[C@H](C(=O)N(C)[C@H](C(=O)N[C@H]2Cc3cc(O)cc(c3)-c3ccc4c(c3)c(c(-c3cnccc3C)n4CC)CC(C)(C)COC(=O)[C@@H]3CCCN(N3)C2=O)C(C)C)C1 [Compound A77]

From patent publication EP4806900A2, “RAS INHIBITORS” (Revolution Medicines, Inc., priority 2019, dated 2021)
